The IC50 is the point on the concentration scale where inhibition reaches its midpoint. Read a high IC50 as a need for much substance.

The assay concerns the target T1, stearoyl-CoA desaturase (SCD) (Rattus norvegicus, UniProt P07308).
T1 construct: from tissue; host or cells: liver microsomes of male Sprague Dawley rats, with SCD induced by a carbohydrate-rich diet after fasting/feeding cycles
T1 sequence (P07308 1-358): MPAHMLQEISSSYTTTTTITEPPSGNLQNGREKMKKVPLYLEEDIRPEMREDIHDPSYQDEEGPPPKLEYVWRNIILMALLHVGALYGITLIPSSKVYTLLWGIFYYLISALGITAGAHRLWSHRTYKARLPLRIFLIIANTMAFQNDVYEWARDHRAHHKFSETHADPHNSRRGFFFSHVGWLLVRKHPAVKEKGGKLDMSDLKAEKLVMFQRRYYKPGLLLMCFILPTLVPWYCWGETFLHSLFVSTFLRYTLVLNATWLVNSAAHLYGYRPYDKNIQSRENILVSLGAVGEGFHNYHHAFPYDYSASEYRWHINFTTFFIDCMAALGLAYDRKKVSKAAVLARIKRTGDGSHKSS
In words: SCD assay in rat liver microsomes ([3H]stearoyl CoA desaturation, adapted from Talamo and Bloch). The class given is biochemical. The settings on record: rat liver microsomes 0.2 mg/ml assay final, 30 min preincubation, 45 min reaction, room temperature. From the text: The identification of compounds of the invention as SCD inhibitors was readily accomplished using the SCD enzyme and microsomal assay procedure described in Talamo and Bloch (1969) Analytical Biochemistry 29:300-304.
The rat liver microsomes were collected according to the procedure described in Ozols (1990) Methods Enzm, 182:225.
Male Spraque Dawley Rats were placed on regimented fasting protocol for one week to stimulate SCD enzymatic activity. 48-hour periods were alternated between feeding and fasting to induce and down-regulate SCD activity with SCD activity being induced via carbohydrate rich diet prior to liver perfusion and collection.
The rats were anesthetized with Isoflurane inhalation anesthetic, the liver perfused with cold phosphate buffered saline (PBS), weighed, and chilled in cold homogenization buffer (250 mM sucrose, 10 mM Tris, 1 mM EDTA, pH 7.6.
The livers were finely minced and placed in homogenization tube. 40 mL of homogenization buffer was added to the homogenization tube and the liver homogenized and centrifuged in a pre-chilled […] for 10 min at 4° C.
Following centrifugation, the supernatant was collected and the pellet removed and discarded. The supernatant was centrifuge at 10,000 G for 35 minutes. Following centrifugation, the supernatant was collect and the pellet discarded. The supernatant was then centrifuged in a pre-chilled 45-Ti rotor at 130,000 G (41,000 RPM) for 90 minutes at 4° C.
The supernatant was then aspirated off and the collected microsomal pellet washed in 25 mL of Glycerol PBS (1×PBS 7.4, 20% Glycerol) and resuspended in 4-5 volumes of Glycerol PBS.
The protein concentration of the microsomal preparation was determined by BCA assay (Pierce) and the microsomes were aliquoted and stored at −80° C.
Biobeads were ground to a smaller size in a mortar and pestle and resuspended in 3.6% TCA. The beads were then filtered through […] mesh.
SCD was determined in the desaturase assay buffer. This assay buffer contained 0.1 M Tris buffer, pH 7.2, 2 mM NADH, 4.8 mM ATP, 0.5 mM CoA, 4.8 mM MgCl2, and 0.1% BSA.
The Procedure for the SCD Assay (Adapted from Talamo and Bloch (1969) Analytical Biochemistry 29:300-304)
1 μl of each compound of Formula I was added to an assay plate by a low volume (0.5-10 μL) multichannel pipette. A DMSO control was also prepared. The microsomes were quickly thawed and added to assay buffer so that a concentration of 0.4 mg/ml was achieved (0.2 mg/ml assay final). 50 μl of the microsome suspension in assay buffer was then added into each well in the compound assay plate, the plate was covered, and the microsomes preincubated with the compounds for 30 minutes on the orbital shaker, 50-75 rpm, at room temperature.
After preincubation, the reaction was initiated by the addition of 50 μl of substrate solution (20 μM Stearoyl CoA, [3H]Stearoyl CoA, 74 nCi) to the preincubated microsomes/compound suspensions in MilliQ (Millipore) H2O. The reaction mixtures were then incubated for 45 minutes on the orbital shaker at 50-75 rpm at room temperature.
The reaction was terminated by the addition of 10 μl of 21% […] (TCA) to the reaction mixture followed incubation on the orbital shaker for 30 minutes at 50-75 rpm at room temperature followed by centrifugation for 5 minutes at 3700 rpm.
50 μl of a 6% Bio-Bead suspension in H2O was added to the reaction mixture and the assay plate was sealed. The Bio-Bead mixture was incubated on the orbital shaker for 1 hour, 100-150 rpm at room temperature, and then the mixture was centrifuged at 2000 g for 5 minutes to pellet the Bio-Beads.
25 μl of the supernatant was harvested from each well and transferred to a detection plate. 100 μl of OptiPhase SuperMix scinitillation cocktail (containing sufficient NaOH to neutralize the TCA) was added and the solutions mixed by vigorous shaking (300-400 rpm) for 5 minutes at room temperature. […]
For orientation: Microsomes from liver hold many membrane-bound enzymes, among them those of drug oxidation.
`COc1ccc(-c2nc3cnc(NCc4cccc(Cl)c4)nc3n(CCNC(C)=O)c2=O)cc1` [Compound 24, N-[2-(2-{[(3-chlorophenyl)methyl]amino}-6-(4-methoxyphenyl)-7-oxo-8-hydropteridin-8-yl)ethyl]acetamide]: the half-inhibitory concentration (IC50) is 1300 nM.
Turning to `CC(=O)NCCn1c(=O)cnc2cnc(NCc3cccc(Cl)c3)nc21` [Compound 25, N-[2-(2-{[(3-chlorophenyl)methyl]amino}-7-oxo-8-hydropteridin-8-yl)ethyl]acetamide], inhibition was half-maximal at 10000 nM (IC50).
For `CC(=O)NCCn1c(=O)c(-c2ccc(Cl)cc2)nc2cnc(NCc3cccc(Cl)c3)nc21` [Compound 26, N-[2-(6-(4-chlorophenyl)-2-{[(3-chlorophenyl)methyl]amino}-7-oxo-8-hydropteridin-8-yl)ethyl]acetamide] the value was 7800 nM; for `CC(=O)NCCn1c(=O)c(-c2cccnc2)nc2cnc(NCc3cccc(Cl)c3)nc21` [Compound 27, N-[2-(2-{[(3-chlorophenyl)methyl]amino}-7-oxo-6-(3-pyridyl)-8-hydropteridin-8-yl)ethyl]acetamide], 9100 nM; for `CC(=O)NCCn1c(=O)cnc2cnc(NCc3ccc(Cl)cc3)nc21` [Compound 28, N-[2-(2-{[(4-chlorophenyl)methyl]amino}-7-oxo-8-hydropteridin-8-yl)ethyl]acetamide], 21900 nM.
For `COc1ccc(-c2nc3cnc(NCc4ccc(Cl)c(Cl)c4)nc3n(CCNC(=O)c3ccc(F)cc3)c2=O)cc1` [Compound 29, N-[2-(2-{[(3,4-dichlorophenyl)methyl]amino}-6-(4-methoxyphenyl)-7-oxo(8-hydropteridin-8-yl))ethyl](4-fluorophenyl)carboxamide] the value was 430 nM.
As for `COc1ccc(-c2nc3cnc(NCc4ccc(Cl)c(Cl)c4)nc3n(CCNC(=O)c3cccc(C)c3)c2=O)cc1` [Compound 30, N-[2-(2-{[(3,4-dichlorophenyl)methyl]amino}-6-(4-methoxyphenyl)-7-oxo(8-hydropteridin-8-yl))ethyl](3-methylphenyl)carboxamide], 3270 nM corresponded to half-maximal inhibition (IC50).
The compound `COc1ccc(-c2nc3cnc(NCc4ccc(Cl)c(Cl)c4)nc3n(CCNC(=O)c3ccco3)c2=O)cc1` [Compound 31, N-[2-(2-{[(3,4-dichlorophenyl)methyl]amino}-6-(4-methoxyphenyl)-7-oxo(8-hydropteridin-8-yl))ethyl]-2-furylcarboxamide] had an IC50 of 2260 nM.
`CC(=O)NCCn1c(=O)c(-c2ccc(Cl)cc2)nc2cnc(NCc3ccc(Cl)c(Cl)c3)nc21` [Compound 32, N-[2-(2-{[(3,4-dichlorophenyl)methyl]amino}-6-(4-chlorophenyl)-7-oxo-8-hydropteridin-8-yl)ethyl]acetamide] showed an IC50 of 1890 nM.
`CC(=O)NCCn1c(=O)c(-c2ccc(Cl)cc2)nc2cnc(NCc3ccc(F)cc3)nc21` [Compound 33, N-[2-(6-(4-chlorophenyl)-2-{[(4-fluorophenyl)methyl]amino}-7-oxo-8-hydropteridin-8-yl)ethyl]acetamide] came in with a half-maximal inhibitory concentration (IC50) of 1800 nM.
Turning to `O=C(NCCn1c(=O)cnc2cnc(NCc3ccc(Cl)c(Cl)c3)nc21)c1ccccc1` [Compound 34, N-[2-(2-{[(3,4-dichlorophenyl)methyl]amino}-7-oxo(8-hydropteridin-8-yl))ethyl]benzamide], the IC50 was found to be 2720 nM.
As to `O=C(NCCn1c(=O)cnc2cnc(NCc3ccc(Cl)c(Cl)c3)nc21)c1ccsc1` [Compound 35, N-[2-(2-{[(3,4-dichlorophenyl)methyl]amino}-7-oxo(8-hydropteridin-8-yl))ethyl]-3-thienylcarboxamide], the IC50 turned out to be 6120 nM. Compared with the last compound, the IC50 is about 2.2-fold higher.
With `O=C(NCCn1c(=O)c(-c2cccnc2)nc2cnc(NCc3ccc(Cl)c(Cl)c3)nc21)c1ccccc1` [Compound 36, N-[2-(2-{[(3,4-dichlorophenyl)methyl]amino}-7-oxo-6-(3-pyridyl)(8-hydropteridin-8-yl))ethyl]benzamide], the IC50 was 4060 nM. Compared with the last compound, the IC50 is about 1.5-fold lower.
The value for `O=C(NCCn1c(=O)c(-c2cccnc2)nc2cnc(NCc3ccc(Cl)c(Cl)c3)nc21)c1ccsc1` [Compound 37, N-[2-(2-{[(3,4-dichlorophenyl)methyl]amino}-7-oxo-6-(3-pyridyl)(8-hydropteridin-8-yl))ethyl]-3-thienylcarboxamide] was 5010 nM; that for `O=C(NCCn1c(=O)c(-c2cccnc2)nc2cnc(NCc3ccc(Cl)c(Cl)c3)nc21)c1ccc(F)cc1` [Compound 38, N-[2-(2-{[(3,4-dichlorophenyl)methyl]amino}-7-oxo-6-(3-pyridyl)(8-hydropteridin-8-yl))ethyl](4-fluorophenyl)carboxamide] was 1180 nM; that for `COc1ccc(-c2nc3cnc(NCc4ccc(Cl)c(Cl)c4)nc3n(CCNC(=O)c3ccncc3)c2=O)cc1` [Compound 39, N-[2-(2-{[(3,4-dichlorophenyl)methyl]amino}-6-(4-methoxyphenyl)-7-oxo(8-hydropteridin-8-yl))ethyl]-4-pyridylcarboxamide] was 2800 nM.
`C/C=C/C(=O)NCCn1c(=O)c(-c2ccc(OC)cc2)nc2cnc(NCc3ccc(Cl)c(Cl)c3)nc21` [Compound 40, (2E)—N-[2-(2-{[(3,4-dichlorophenyl)methyl]amino}-6-(4-methoxyphenyl)-7-oxo(8-hydropteridin-8-yl))ethyl]but-2-enamide]: the IC50 stood at 470 nM.
Consider `COc1ccc(-c2nc3cnc(NCc4ccc(Cl)c(Cl)c4)nc3n(CCNC=O)c2=O)cc1` [Compound 41, N-[2-(2-{[(3,4-dichlorophenyl)methyl]amino}-6-(4-methoxyphenyl)-7-oxo-8-hydropteridin-8-yl)ethyl]carboxamide], for which the IC50 came to 260 nM.
As for `COc1ccc(-c2nc3cnc(NCc4ccc(Cl)c(Cl)c4)nc3n(CCNC(=O)c3cccc(F)c3)c2=O)cc1` [Compound 42, N-[2-(2-{[(3,4-dichlorophenyl)methyl]amino}-6-(4-methoxyphenyl)-7-oxo(8-hydropteridin-8-yl))ethyl](3-fluorophenyl)carboxamide], the IC50 came out at 2250 nM.
